Marks after values point to notes of the source that are not given here.
Experiments:
amyloid plaques = experiment: Thioflavin S staining of amyloid plaques in brain slices (5×FAD mice); format: in vivo, mouse; conditions: 5×FAD male mice 6-month-old, 5 mg/kg, 4 weeks, mean ± SEM
Source text: (§1) 5×FAD (tg6799) is an early-onset mouse transgenic model which overexpress mutant human APP(695) with the Swedish (K670N, M671L), Florida (I716V) and London (V717I) Familial Alzheimer's Disease (FAD) mutations along with human PS1 harbouring two FAD mutations (M146L and L286V). The Tg6799 line used is the original hybrid B6SJL background, and this hybrid B6SJL strain is used as a control of healthy animals. The mouse Thy1 promoter regulates both transgenes to drive overexpression in the brain. 5×FAD mice recapitulate major features of AD amyloid pathology and is a useful model of intraneuronal Abeta-42 induced neurodegeneration with amyloid increase brain content and amyloid plaque formation and tau hyperphosphorylation (J Neurosci. 2006, 26(40), 10129-10140).
(§2) The test compound was dissolved in 1.8% hydroxypropyl-beta-cyclodextrin and concentration in water was calculated according to the weekly animal consumption to reach the precise daily dose. A freshly made weekly replaces the drinking solution. The amount of water that the animals drink was monitored weekly, by the cage, and drug concentration was adjusted every week to reach the precise dose. After 4 weeks of maintained treatment, mice were studied in the behavioural tests.
After NORT, animals were sacrificed and the whole hippocampus dissected or brain slices from control and treated mice obtained by using a cryostat. […]

[1] = In vitro determination of microsomal stability; format: in vitro ADME; conditions: human microsomes, 37° C., samples at 0-60 min
Experimental: The human recombinant microsomes employed were purchased from Tebu-Xenotech. […] Samples (75 μL) were taken from each well at 0, 10, 20, 40 and 60 min and transferred to a plate containing 4° C. 75 μL acetonitrile and 30 μL of 0.5% formic acid in water were added for improving the chromatographic conditions. The plate was centrifuged (46000 g, 30 min) and supernatants were taken and analyzed in a UPLC-MS/MS (Xevo-TQD, Waters) by employing a BEH C18 column and an isocratic gradient of 0.1% formic acid in water:0.1% formic acid acetonitrile (60:40). The metabolic stability of the compounds was calculated from the logarithm of the remaining compounds at each of the time points studied.

5×FAD mice = experiment: Novel Object Recognition Test (NORT) in 5×FAD mouse model of Alzheimer disease; format: in vivo; conditions: 5×FAD model, 5 mg/kg, treated vs control groups
Source text: 5×FAD (tg6799) is an early-onset mouse transgenic model which overexpress mutant human APP(695) with the Swedish (K670N, M671L), Florida (I716V) and London (V717I) Familial Alzheimer's Disease (FAD) mutations along with human PS1 harbouring two FAD mutations (M146L and L286V). The Tg6799 line used is the original hybrid B6SJL background, and this hybrid B6SJL strain is used as a control of healthy animals. The mouse Thy1 promoter regulates both transgenes to drive overexpression in the brain. […]
as §2, with “A freshly made weekly replaces the drinking solution.” left out, “After 4 weeks of maintained treatment, mice were studied in the behavioural tests.” left out
Mice were placed in a 90°, two-arm, 25-cm-long, 20-cm-high, 5-cm-wide black maze. […] During this second trial, objects A and B were placed in the maze and the behaviour of the mice was recorded with a camera. The time that the mice explored the New object (TN) and Time that the mice explored the Old object […] (TO) were measured. […]

TREM2 = experiment: Western blot of hippocampus, neuroinflammation marker TREM2 (5×FAD mice); format: in vivo, mouse; conditions: 5×FAD male mice, 5 mg/kg, 4 weeks, Arbitrary Units, control as 100%
Source text: as §1
as §2, with “After 4 weeks of maintained treatment, mice were studied in the behavioural tests.” left out
Afterwards, membranes were washed and incubated with secondary antibodies for 1 h at room temperature. […] Immunodetection of GADPH routinely monitored protein loading. […]

human primary astrocytes = experiment: T/I/C-induced reactive astrocyte conversion, qPCR and Western blotting; format: cell-based
Experimental: To validate the inhibition efficacy of sEH, 10^6 astrocytes isolated from CD1 mouse brain (Sciencell #M1800) or primary human astrocyte (Sciencell #1800) were seeded onto 6 well culture plates in astrocyte medium (Sciencell #1831 or #1801).
Total RNAs were isolated from microglia or astrocyte using a Quick-RNA kit (Zymo Research, Inc., Irvine, CA, USA). The concentration of total RNAs was measured using a UV-Vis spectrophotometer (NanoDrop8000, Thermo Fisher Scientific Inc., Wilmington, DE, USA) and reverse-transcribed with a high-capacity cDNA reverse transcription kit (Applied Biosystems, Carlsbad, CA, USA). Gene expression was quantified by Fast SYBR green real-time PCR on a Quantstudio 5 system (Applied Biosystems). The primer sequences are listed below (Table 8). Data were analyzed according to the comparative Ct method. Glyceraldehyde 3-phosphate dehydrogenase (Gapdh) was used to normalize the amounts of cDNA within each sample.
Proteins were extracted from microglia or astrocyte by RIPA buffer (Thermo Fisher Scientific Inc.). Extracted proteins were separated by SDS/PAGE and subsequently transferred to nitrocellulose membranes (Bio-Rad, Hercules, CA, USA). […] Membranes visualized on Odyssey (LI-COR Biosciences, NE, USA).

## O=C(NC12CC3CC(Cl)(CC(C1)c1ccccc13)C2)N[C@H]1CC[C@H](Oc2ccc(C(=O)O)cc2)CC1 [Example 2, 4-[((1r,4r)-4-(3-(9-chloro-5,6,8,9,10,11-hexahydro-7H-5,9:7,11-dimethanobenzo[9]annulen-7-yl)ureido)cyclohexyl)oxy]benzoic acid]
Amyloid plaques
  Number of Aβ plaques: 292 ± 83
[1]
  Microsomal stability (% remanent): 89%
5×FAD mice
  memory deficits by NORT: reduced memory deficits
TREM2; listed as Cpd. Ex. 2
  TREM2 protein levels: 118.42 ± 6.53*^
TREM2; listed as compound of example 2
  TREM2 protein levels: significant diminution in the protein levels
Human primary astrocytes; T/I/C 24 h, qPCR
  induction of inflammatory mediators Nos and Cox2 mRNA: prevented the induction
  mRNA levels of reactive astrocyte markers Cxcl10 and C3: significantly reduced
Human primary astrocytes; T/I/C-induced reactive astrocyte, 30 μM (FIG. 5f)
  protein levels of C3 and phosphor-p38: decreased

From patent publication US20240182406A1, “COMPOUNDS AS SOLUBLE EPOXIDE HYDROLASE INHIBITORS” (UNIVERSITAT DE BARCELONA, priority 2021, published 2024)
